# Measured values: patent US20060051354A1, “Chemotherapeutic agents as anti-cancer vaccine adjuvants and therapeutic methods thereof” (priority 2002, published 2006)
# B1: Ovalbumin: model protein antigen injected without adjuvant (protein, UniProt P01012 2-386, looked up)
# Ovalbumin: GSIGAASMEFCFDVFKELKVHHANENIFYCPIAIMSALAMVYLGAKDSTRTQINKVVRFDKLPGFGDSIEAQCGTSVNVHSSLRDILNQITKPNDVYSFSLASRLYAEERYPILPEYLQCVKELYRGGLEPINFQTAADQARELINSWVESQTNGIIRNVLQPSSVDSQTAMVLVNAIVFKGLWEKAFKDEDTQAMPFRVTEQESKPVQMMYQIGLFRVASMASEKMKILELPFASGTMSMLVLLPDEVSGLEQLESIINFEKLTEWTSSNVMEERKIKVYLPRMKMEEKYNLTSVLMAMGITDVFSSSANLSGISSAESLKISQAVHAAHAEINEAGREVVGSAEAGVDAASVSEEFRADHPFLFCIKHIATNAVLFFGRCVSP
# How the values were obtained:
# [1] = i.m., 50 μl, various concentrations, after 7 days
# Protocol: Paclitaxel (PTX) (Bristol-Myers Squibb, Princeton, N.J.), Doxorubicin (DOX) (Gensia, Irvine, Calif.), and Cisplatin (CIS) (Bristol-Myers Squibb) are diluted before injection. Cyclophosphamide (CTX) (Bristol-Myers Squibb) is diluted in sterile water before injection. PTX, CTX, Dox and CIS are injected intramuscularly (i.m.). (50 μl containing various concentrations of chemotherapeutic agents). Muscles are harvested and sectioned to perform histological analysis to assess tissue damage.
# MCP-1 = assay: Paclitaxel induces MCP-1 in muscle tissue (RT-PCR); assay type: in vivo, Mice; conditions: i.m., muscle harvested 6 hours after injection
# Protocol: Mice are injected intramuscularly (bilaterally) with varying doses of paclitaxel (100 μM to 0.01 μM). Doses of paclitaxel are prepared by 10-fold serial dilutions, in saline, of a 10 mM DMSO stock. The muscles are harvested, on dry ice, 6 hours following injection, and frozen at −80° C. RNA is isolated using TRIZOL reagent (Gibco) as per manufacturers specifications. Ten micrograms of total RNA is reverse transcribed using Superscript RT (Gibco), 500 ng oligodT primers (Gibco), and 250 ng Random Hexamer primers (Gibco) for 20 minutes at room temperature, followed by 2 hours at 42° C.
# MCP-1 is amplified from 2 μl of reverse transcription reaction using Titanium PCR kit (Clontech). Amplification primers are as follows:
# The PCR reaction is performed for 30 cycles using 100 pmole for each primer, with an annealing temperature of 68 degrees. The PCR products are analyzed on a 1.5% agarose gel, and have an expected size of 397 bps.
# B16 cells = assay: Melanine levels in B16 cells pretreated with paclitaxel; assay type: cell-based
# Protocol: This unexpected observation lead to the immunological rationale for testing immune-modulating doses of chemotherapy in combination with an antigen. As described in Example II, paclitaxel increased the humoral response against ovalbumin. The testing of paclitaxel as improving a whole-cell vaccine in mice was performed as shown in Examples III and V. This principle is illustrated in FIG. 1. Sterilizing cancer cells with chemotherapeutic agents before immunization of the mice with a composition of cancer cells undergoing apoptosis and/or necrosis and chemotherapeutic agents protected the animals against a lethal tumor challenge. This was unexpected since chemotherapeutic agents are known to be toxic and to trigger systemic immunosuppression. Also, to have in one single composition a chemotherapeutic agent(s) and an antigen administered simultaneously simplifies the use of chemotherapeutic agents as potential vaccine adjuvants. The presence of the chemotherapeutic agent in the anti-cancer vaccine composition also renders moot or diminish the need to proceed to the inactivation by irradiation of the tumoral cells forming the anti-cancer vaccine before reinoculation. The drugs, especially paclitaxel, helps to raise an immune response by inducing a variety of genes known to be antigenic. […]
# C2C12 cells = assay: Paclitaxel toxicity on differentiated C2C12 cells; assay type: cell-based; conditions: various concentrations, even high concentration, non-dividing cells
# Protocol: […] cells were plated in a 12-wells plate at 7×10^4 cells/ml/well in complete DMEM (10 FBS, 1% Strepto-pen, 1% Hepes) and incubated O/N at 37° C. under 5% CO2 atmosphere. Twenty-four hours later, normal DMEM was changed for DMEM containing 2% Horse serum, 1% Strepto-pen and 1% Hepes. The medium was then changed everyday with the complete DMEM 2% Horse serum. For an extra 7 days, complete DMEM 10% Horse serum was added to the cells. After about 1 week, all cells were differentiated and treated with various concentrations of paclitaxel. Even at a high concentration of paclitaxel, differentiated cells now forming elongated muscular fibers, were not affected by any treatment probably due to the non-dividing state of the cells. This observation support the fact that drugs can be injected in the muscle without necessarily causing damages or cell death.
# melanoma = conditions: pretreatment with low dose cyclophosphamide before melanoma vaccine, after 2 months of immunization; cited from earlier work
# ovalbumin = assay: Humoral response against ovalbumin (ELISA) after intramuscular immunization; assay type: in vivo, Mice; conditions: 1 μg ovalbumin i.m. without adjuvant, 2 weeks
# Protocol: The animals are injected intramuscularly into tibialis anterior muscles with 50 μl containing either 1 μg of ovalbumin formulated with or without paclitaxel at 10E^−2 molar. Mice are sacrificed at various time points to perform the ELISA (2 weeks post-immunization). Ovalbumin-specific antibody responses are quantified by enzyme-linked immunosorbent assay (ELISA). Microtiter plates are coated overnight with 1 μg per well of ovalbumin. Plates are then washed once with PBS-Tween 0.01% and blocked for 2 hours at 37° C. with PBS+1% BSA. The plates are then incubated with serial dilutions of mouse sera for 1 hour at 37° C. […] The data are expressed as the percentage of responding mice and as the mean titers of responding mice.
Molecule,infiltration of lymphocytes (histology of injected muscle) [1],tissue damage (histology of injected muscle) [1],also measured
N.N.[Cl][Pt][Cl] [Cisplatin],mild to moderate,no sign of tissue damage,
CC(=O)O[C@H]1C(=O)[C@@]2(C)[C@H]([C@H](OC(=O)c3ccccc3)[C@]3(O)C[C@H](OC(=O)[C@H](O)[C@@H](NC(=O)c4ccccc4)c4ccccc4)C(C)=C1C3(C)C)[C@]1(OC(C)=O)CO[C@@H]1C[C@@H]2O [Paclitaxel],mild to moderate,no sign of tissue damage,Fold-induction over GAPDH (MCP-1 RT-PCR) (MCP-1; 0.01 μM per injection): 2 fold; Fold-induction over GAPDH (MCP-1 RT-PCR) (MCP-1; 1 μM per injection): 3 fold; Fold-induction over GAPDH (MCP-1 RT-PCR) (MCP-1; 100 μM per injection): 6 fold; Melanine levels in B16 cells (B16 cells): increases; effect on differentiated C2C12 cells (toxicity) (C2C12 cells): not affected
COc1cccc2c1C(=O)c1c(O)c3c(c(O)c1C2=O)C[C@@](O)(C(=O)CO)C[C@@H]3O[C@H]1C[C@H](N)[C@H](O)[C@H](C)O1 [Doxorubicin],mild to moderate,no sign of tissue damage,
O=P1(N(CCCl)CCCl)NCCCO1 (stereo not drawn) [Cyclophosphamide],mild to moderate,no sign of tissue damage,patients with augmented antibody and/or cellular immune responses to melanoma (melanoma): 83%
B1,,,% seroconversion (ovalbumin): 20%
